One data set deals with T1, MRP2 (ABCC2) (Homo sapiens, UniProt Q92887).
T1 construct: host or cells: membrane vesicle preparations
As to the kind of experiment: in vitro. In kind it is biochemical. Conditions: human. The procedure: Cells and experimental conditions for the transporter inhibition assays are summarized below in Table 7. […] M15, M20, and M23 were prepared according to the procedures described herein. All other materials were purchased by SOLVO Biotechnology and experiments were conducted according to SOLVO Standard Operating Procedures (SOPs) of its certified ISO 9001:2008 system. Lot and product information was recorded by SOLVO Biotechnology.
Test compounds and positive control was incubated with membrane vesicle preparations (total protein: 50 μg/well) and the model substrate in the absence or presence of ATP. Reaction mixtures were preincubated for 15 minutes at 37° C. Reactions were started by the addition of 25 μL of 12 mM MgATP or AMP assay buffer (for background controls) preincubated separately. Reactions were stopped after 5 min by the addition of 200 μL of ice-cold washing buffer and immediate filtration via glass fiber filters mounted to a 96-well plate (filter plate). The filters were washed, dried and the amount of substrate inside the filtered vesicles determined by liquid scintillation. A positive control inhibitor was tested in parallel. Control membranes lacking transporter expression were used as negative control. All assays were performed in duplicate.
Fractional transport activities were calculated from the following equation: Activity %=(A−B)/(C−D)×100 where A is translocated amount of substrate in the presence of TA and ATP, B is translocated amount of substrate in the presence of TA, C is translocated amount of substrate in the presence of solvent and ATP, and D is translocated amount of substrate in the presence of solvent. IC50 Determination in Transporter Assays
IC50 is defined as the test article concentration needed to inhibit the maximal transporter specific transport by 50%. IC50 values were calculated using non-linear fitting of % inhibition versus concentration to a sigmoidal curve with a variable Hill Coefficient using GraphPad Prism 5 (GraphPad Software Inc., San Diego, Calif.). If the % inhibition was less than 50% at the highest concentration tested, the IC50 was not determined. No inhibition observed (NIO) is reported for relative inhibition results <20% and no concentration dependent transport observed up to the highest concentration tested.

Data set [1] addresses T2, human hepatic microsomal UGT1A1 (Homo sapiens, UniProt P22309).
T2 sequence (P22309 26-533): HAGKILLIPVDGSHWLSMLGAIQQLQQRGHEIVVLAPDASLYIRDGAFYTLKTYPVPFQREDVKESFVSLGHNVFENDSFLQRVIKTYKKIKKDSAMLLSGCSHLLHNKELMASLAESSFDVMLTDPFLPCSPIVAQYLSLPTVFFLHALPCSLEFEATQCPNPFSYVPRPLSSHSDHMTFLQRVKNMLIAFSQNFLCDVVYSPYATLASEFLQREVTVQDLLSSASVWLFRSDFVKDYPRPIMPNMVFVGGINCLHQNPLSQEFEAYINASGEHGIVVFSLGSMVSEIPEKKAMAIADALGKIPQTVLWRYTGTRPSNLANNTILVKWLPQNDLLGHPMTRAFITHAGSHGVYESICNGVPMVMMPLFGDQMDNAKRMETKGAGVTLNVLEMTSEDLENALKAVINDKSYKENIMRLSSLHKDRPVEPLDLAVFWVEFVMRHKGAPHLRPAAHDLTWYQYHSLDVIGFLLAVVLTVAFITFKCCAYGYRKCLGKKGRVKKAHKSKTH
As to the kind of experiment: biochemical. The procedure:
The conditions for the assay were determined to be linear with respect to microsomal protein concentration and incubation time. […] Microsomal UGT1A1 activity was determined in duplicate. […] Diluted microsomal fraction was incubated on ice for 15 minutes with alamethicin, magnesium chloride and SACLAC. Substrate and inhibitor were then added and the mixture warmed to 37° C. for 0.5 minute. The reaction was initiated by the addition of UDP glucuronic acid in potassium phosphate buffer. The incubation continued at 37° C. with shaking and no light exposure for 2 minutes. Reactions were terminated by addition of one volume of 200 mM ascorbic acid in methanol, containing 200 nM 2-(N-(2-ethylphenyl)methylsulfonamido)-N-(2-(pyridin-2-ylthio)ethyl)acetamide as the internal standard.
A Shimadzu UFLC XR UPLC system was used for analysis. The column used was a Thermo-Hypersil Gold 1.9 μm C18 column (30×2.1 mm) held at 60° C. Mobile phases were; A: water containing 0.1% (v/v) formic acid, and B: acetonitrile containing 0.1% (v/v) formic acid, pumped at 0.7 mL/minute. Elution was achieved by a series of linear gradients over 2 minutes. The mass spectrometer was an Applied Biosciences SCIEX QTRAP 5500 triple quadrupole mass spectrometer with an electrospray interface operating in positive ion mode. Quantification was by metabolite/internal standard peak area ratio (PAR).
MS/MS transitions ([M+H]+) of m/z 761.2/475.1 and 937.2/475.1 for the monoglucuronide and diglucuronide, respectively. The PAR values for the two monoglucuronides were combined for quantification.
Reaction velocities were calculated from the rates of formation of the metabolites and were compared to those seen with the vehicle control (100% activity). IC50 values were calculated by non-linear regression using GraphPad Prism 7.03 and a sigmoidal three parameter inhibition model. […] During the testing period the inhibitory potency of atazanavir was determined four times, with each concentration tested in duplicate in each determination. The data from all runs were pooled and a global fit performed to determine the lower plateau value. […] For atazanavir, the IC50 values from the four duplicate runs were combined to generate a summary geometric mean and multiplicative standard deviation for this positive control inhibitor.

Substrate in data set [2]: C=CC1=C(C)/C(=C/c2[nH]c(Cc3[nH]c(/C=C4\NC(=O)C(C)=C4C=C)c(C)c3CCC(=O)O)c(CCC(=O)O)c2C)NC1=O
Kind of data set: cells, lysate or membranes named. Conditions: other: under the assay conditions; pH 7.4.

Bounds are passed on as bounds.

T1 sequence (Q92887 whole entry): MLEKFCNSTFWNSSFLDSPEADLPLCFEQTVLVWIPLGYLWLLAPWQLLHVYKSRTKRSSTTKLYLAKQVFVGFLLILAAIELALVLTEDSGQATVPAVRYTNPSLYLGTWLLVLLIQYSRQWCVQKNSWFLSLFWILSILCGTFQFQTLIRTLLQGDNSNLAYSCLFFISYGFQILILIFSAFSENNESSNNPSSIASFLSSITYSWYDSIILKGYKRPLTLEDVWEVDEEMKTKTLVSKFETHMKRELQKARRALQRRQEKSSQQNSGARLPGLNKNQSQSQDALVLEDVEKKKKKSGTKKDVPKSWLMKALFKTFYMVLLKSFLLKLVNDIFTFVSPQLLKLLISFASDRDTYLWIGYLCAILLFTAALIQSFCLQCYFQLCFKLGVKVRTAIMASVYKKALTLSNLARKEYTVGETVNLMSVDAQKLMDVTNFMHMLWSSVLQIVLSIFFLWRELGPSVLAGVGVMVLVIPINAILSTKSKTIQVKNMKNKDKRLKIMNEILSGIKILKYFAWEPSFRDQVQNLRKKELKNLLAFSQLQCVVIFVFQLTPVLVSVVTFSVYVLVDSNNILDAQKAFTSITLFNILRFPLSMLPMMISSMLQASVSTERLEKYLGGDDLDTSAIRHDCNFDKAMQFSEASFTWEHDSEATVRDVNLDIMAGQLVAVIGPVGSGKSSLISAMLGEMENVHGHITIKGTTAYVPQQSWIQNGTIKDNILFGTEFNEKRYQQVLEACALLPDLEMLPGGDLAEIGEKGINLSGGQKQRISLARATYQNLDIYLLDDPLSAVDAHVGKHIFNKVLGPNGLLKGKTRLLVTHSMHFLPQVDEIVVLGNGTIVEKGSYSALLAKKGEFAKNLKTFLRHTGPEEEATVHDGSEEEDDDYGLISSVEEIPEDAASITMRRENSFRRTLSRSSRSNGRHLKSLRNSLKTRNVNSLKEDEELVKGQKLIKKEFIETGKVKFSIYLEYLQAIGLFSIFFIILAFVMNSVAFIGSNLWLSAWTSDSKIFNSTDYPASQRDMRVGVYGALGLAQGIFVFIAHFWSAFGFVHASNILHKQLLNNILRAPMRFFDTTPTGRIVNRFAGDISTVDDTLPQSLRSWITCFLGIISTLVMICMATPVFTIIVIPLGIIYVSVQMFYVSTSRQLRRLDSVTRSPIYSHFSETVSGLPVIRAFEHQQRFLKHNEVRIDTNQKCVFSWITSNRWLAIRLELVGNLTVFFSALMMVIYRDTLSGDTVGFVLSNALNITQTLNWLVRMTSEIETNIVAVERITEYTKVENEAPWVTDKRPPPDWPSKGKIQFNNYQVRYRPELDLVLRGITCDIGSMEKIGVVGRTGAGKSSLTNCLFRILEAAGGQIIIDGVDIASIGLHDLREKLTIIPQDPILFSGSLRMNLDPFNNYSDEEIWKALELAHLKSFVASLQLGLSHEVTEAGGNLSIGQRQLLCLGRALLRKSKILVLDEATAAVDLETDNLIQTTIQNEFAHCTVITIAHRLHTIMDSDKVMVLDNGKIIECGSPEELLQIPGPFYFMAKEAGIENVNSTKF

`CCc1oc2ccccc2c1C(=O)c1cc(Br)c(O)c(Br)c1` [benzbromarone, reference compound]: the inhibition at 5 min, 200 µM on MRP2 (ABCC2) is not below 99%.
In the case of `COC(=O)N[C@H](C(=O)N[C@@H](Cc1ccccc1)[C@@H](O)CN(Cc1ccc(-c2ccccn2)cc1)NC(=O)[C@@H](NC(=O)OC)C(C)(C)C)C(C)(C)C` [atazanavir, reference compound], the IC50 in data set [1] was 1.2 µM. For the same molecule, the “Lower plateau value, activity remaining (global best fit)” value in data set [1] (pooled data of four runs, standard error 2.94%) was determined as 10.96%.

B1: human hepatic microsomal UGT1A1 (Homo sapiens) (protein)
chain: HAGKILLIPVDGSHWLSMLGAIQQLQQRGHEIVVLAPDASLYIRDGAFYTLKTYPVPFQREDVKESFVSLGHNVFENDSFLQRVIKTYKKIKKDSAMLLSGCSHLLHNKELMASLAESSFDVMLTDPFLPCSPIVAQYLSLPTVFFLHALPCSLEFEATQCPNPFSYVPRPLSSHSDHMTFLQRVKNMLIAFSQNFLCDVVYSPYATLASEFLQREVTVQDLLSSASVWLFRSDFVKDYPRPIMPNMVFVGGINCLHQNPLSQEFEAYINASGEHGIVVFSLGSMVSEIPEKKAMAIADALGKIPQTVLWRYTGTRPSNLANNTILVKWLPQNDLLGHPMTRAFITHAGSHGVYESICNGVPMVMMPLFGDQMDNAKRMETKGAGVTLNVLEMTSEDLENALKAVINDKSYKENIMRLSSLHKDRPVEPLDLAVFWVEFVMRHKGAPHLRPAAHDLTWYQYHSLDVIGFLLAVVLTVAFITFKCCAYGYRKCLGKKGRVKKAHKSKTH
As to B1, the Km in data set [2] was found to be 0.98 µM.

The inhibition is the change of the read-out against control, counted positive when it falls. A word on the IC50: it is the concentration needed to halve the response being measured. A higher IC50 goes with weaker potency. For orientation: Km means the concentration of substrate that gives half-maximal velocity.

(Values after US11253524B2 (Gilead Sciences, Inc., priority 2018, dated 2022).)
